Data on 5 substances can be found in patent publication US20260014278A1, “HYBRID PEPTIDE DENDRIMER SYSTEMS AND EXTRAHEPATIC DELIVERY” (NUNTIUS THERAPEUTICS LIMITED, priority 2022, published 2026).

A short description of data set [1]: Dynamic light scattering: hydrodynamic size and polydispersity index (PDI) of nanoparticles. In kind it is physicochemical. How it is done:
(§1) The hydrodynamic size was measured using the dynamic light scattering (DLS) technique. DLS is a very sensitive, non-invasive method to measure size and size distribution of nanoparticles in a liquid. […] Analysing these intensity fluctuations allows us to calculate the velocity of the Brownian motion. The size of the nanoparticles can be determined by using the Stokes-Einstein relationship. With the latest technology, it can measure nanoparticles smaller than 1 nm.
PDI is used to estimate the average uniformity of a particle solution, The method of cumulants is a standard technique for analysing DLS data on sample polydispersity. PDI is a number calculated from a 2 parameter fit to the correlation data (the cumulants analysis). The cumulants analysis is used to evaluate the autocorrelation function generated by a DLS experiment. The calculation is defined in ISO 13321 and ISO 22412. PDI values greater than 0.7 indicate that the sample has a very broad size distribution and is not suitable for the DLS technique. The calculations for these parameters are defined in the ISO standard document 13321:1996 E and ISO 22412:2008.
as §1, with “Size, zeta potential and polydispersity index (PDI) measurement: The hydrodynamic” for “The hydrodynamic”, “scattering (DLS) technique using the Zetasizer Advance Series—Pro (Malvern Panalytical Ltd, Malvern, UK) according to the manufacturer's instructions. DLS is” for “scattering (DLS) technique. DLS is”
The data obtained with DLS measurements can also be used to calculate the PDI of particle in solution. PDI is used to estimate the average uniformity of a particle solution. The method of cumulants is a standard technique for analysing DLS data on sample polydispersity. PDI is a number calculated from a 2 parameter fit to the correlation data (the cumulants analysis). The cumulants analysis is used to evaluate the autocorrelation function generated by a DLS experiment. The calculation is defined in ISO 13321 and ISO 22412. PDI values greater than 0.7 indicate that the sample has a very broad size distribution and is not suitable for the DLS technique. The calculations for these parameters are defined in the ISO standard document 13321:1996 E and ISO 22412:2008.
To measure the size and PDI, the samples were diluted 16× in 25 mM HEPES buffer (5 μl sample+75 μl buffer). Parameters: reference material: polystyrene latex, dispersant: water, 25° C. The PDI measurements were measured in nanoparticles comprising a dendrimer:nucleic acid NP ratio of 8:1.

The next data set relates to human THP-1 cells. Put plainly: eGFP mRNA transfection of human THP-1 macrophages, flow cytometry. In kind it is cell-based. Conditions: GSCG1,2-RL, 3-LR NP=0.16:1, GSCG1-LRLR NP=0.6, GSCG1,2-RHL NP=5:1, GSCG1,2-RF, 3HL NP=0.6:1, RHCG1-R NP=0.6:1, DOTMA:DOPE w/w 10:1, lipid-only w/w 3.2:1, FIG. 3. The protocol: THP-1 cells (a human leukaemia monocytic cell line) were sub-cultured in RPMI (with glutamax)+10% heat inactivated FBS (complete media) at 3E+5 cells/ml and passaged every 3-4 days. For macrophage polarisation 7.5E+6 cells were seeded in T75 flasks in a total of 20 ml complete media containing 5 ng/ml PMA (1:1000 of 5 ug/ml stock). The cells were transferred to the 37° C. incubator for overnight. After 24 hrs, THP-1 cells were washed with complete medium and a fresh flask complete medium (not containing PMA) was overlaid on the cells. After a further 72 hrs, the complete medium was exchanged for fresh complete media containing 20 ng/ml rhlL-4 (1:500 of 10 μg/ml stock). 24 hrs later the cells were harvested by firstly washing the cells with PBS followed by a 5 minute treatment at 37° C. with 5 mM EDTA (diluted in PBS). Cells were spun down at 300 g for 5 minutes and resuspended in a complete medium containing 20 ng/ml rhlL-4 at 2.4E+5 cells/mi. 500 ul of cells were seeded into each well on a 24-well plate and left overnight in the 37° C. incubator.
The medium overlaying the polarised THP-1 cells was aspirated and exchanged with 480 ul/well complete media containing 20 ng/ml rhlL-4. […]
Data were collected using a BD LSRFortessa I analyser running […] software (Beckton Dickinson). All collected data were analysed using FlowJo 10.0 software. […]
In general terms: In flow cytometry, cells or beads pass a laser one at a time.

A further data set concerns HeLa cells. Put plainly: Luciferase plasmid (pCl-Luc) DNA transfection of HeLa cells. The data set is classed as cell-based, human. Conditions: for transfection, comparison of generations G1, G2, G3: pCl-Luc with D/D, 24 h, FIG. 16A. The source says: (§2) FIG. 15. Comparison of the transfection efficiency of G1,2,3-RL with other commercial transfection reagents including DOTMA/DOPE, Polyethylenimine and Lipofectamine 2000 for DNA delivery. (A) Transfection in HeLa cells without the presence of serum, (B) transfection in HeLa cells with the presence of serum, (C) transfection in Neuro2A cells without the presence of serum and (D) transfection in Neuro2A cells with the presence of serum. Cells transfected with a luciferase-expressing plasmid (pCl-Luc) in the presence of GSCG1,2,3-RL with D/D (measured 24 h after transfection). The luminescence values were normalized by dividing them by the analogous values for cells treated with a D/D DNA complex to generate the % of transfection. Conditions: 1×10^4 cells were transfected with 0.25 μg pCl-Luc for 4 hours without serum or in the presence of 10% serum. Error bars refer to the mean±SEM for experiments carried out in triplicate. […] D/D is DOTMA/DOPE at w/w 1:1.
(§3) FIG. 16. Comparison of the transfection efficiency of dendrimers with different generations (G1, G2 and G3) with different N/P ratios and cationic residues (e.g. KL vs RL) for DNA delivery. (A) Transfection efficiency in HeLa cells, (B) transfection efficiency in Neuro2A cells. Cells transfected with a luciferase-expressing plasmid (pCl-Luc) in the presence of peptide dendrimers with D/D (measured 24 h after transfection). The luminescence values were normalized by dividing them by the analogous values for cells treated with a D/D DNA complex (w/w 1:1, 0.25 μg) to generate the % of transfection. Conditions: 1×10^4 cells were transfected with 0.25 μg pCl-Luc. Error bars refer to the mean±SEM for experiments carried out in triplicate. * denotes p<0.05. D/D is DOTMA/DOPE at w/w 1:1. Generation 2 and generation 3 dendrimers perform better at transfecting both HeLa and Neuro2A cells compared to generation 1 dendrimers.
(§4) Using a third generation peptide dendrimer, GSCG1,2,3-RL, the inventors also compared the transfection efficiency of DNA using this dendrimer to that of commercially available transfection reagents. […]

Another data set has as its system Neuro2A cells. Description: Luciferase plasmid (pCl-Luc) DNA transfection of Neuro2A cells. Conditions: for transfection, comparison of generations G1, G2, G3: pCl-Luc with D/D, 24 h, FIG. 16B. In kind it is cell-based.
Description: as §2, §3, §4

Data set [2] deals with macrophage-polarised primary bone marrow derived monocytes. Description: eGFP mRNA transfection of macrophage-polarised primary mouse bone marrow derived monocytes, flow cytometry. The data set is classed as cell-based. Conditions: GSCG1,2-RHL NP=0.6:1, GSCG1,2-RL, 3-LR NP=0.16:1, GSCG1,RL, 2-LR NP=8:1, DOTMA:DOPE w/w 10:1, lipid-only DOTMA/DOPE w/w 3.2:1, FIG. 2. How it is done:
BMDM cells were isolated using the StemCell Tech EasySep Mouse Monocyte Isolation Kit from mouse bone marrow cell suspension. The cells were resuspended in complete medium (DMEM+1% glutamax+10% heat inactivated FBS+1% Pen/Strep) enriched with 50 ng/ml murine M-CSF (1:1000 of 50 μg/ml stock) at 1E+6 cells/mi. 2 million cells (i.e. 2 mL) was seeded in each well of 6-well plate(s). The plate was incubated at 37° C. for 4 days. Half media exchange was performed using complete media enriched with […] murine M-CSF and 40 ng/ml murine IL-4. Cells were then harvested the next day (day 5) by washing cells with PBS and a 10 minute incubation with 5 mM EDTA (diluted in PBS) at 37° C. followed by plate tapping and resuspension. […]
Data were collected using a BD LSRFortessa I analyser running […] software (Beckton Dickinson). All collected data were analysed using FlowJo 10.0 software.
Transfection efficiency of macrophage-polarised primary bone marrow derived monocytes using various peptide dendrimer/lipid nanoparticles was assessed and compared to lipid-only nanoparticles (LPX-RNA). Each nanoparticle, with or without dendrimer, included eGFP mRNA to allow analysis of absolute numbers of cells transfected to be assessed by flow cytometry. […]

In turn, (R)2KRHC-NH2 [RHCG1-R] gave a PDI in data set [1] (Table 7, first generation dendrimers for mixed dendrimer nanoparticles) of 0.566. Moreover, the transfection efficiency in the data set with human THP-1 cells is 30-35%.

As for (KL)2KGSC-NH2 [GSCG1-KL], the “transfection, comparison of generations G1, G2, G3” value in the data set on HeLa cells and with Neuro2A cells was “do not transfect” each time.

In data set [2], (LR)4(KRL)2KRHC-NH2 [RHCG1-RL, 2-LR] returned a transfection efficiency of about 50%. The “Polydispersity Index (PDI)” value in data set [1] (peptide dendrimer, lipid and mRNA complexes, N:P 8:1, DOTMA/DOPE w/w 10:1 to mRNA) worked out at 0.109.

Regarding (RL)2KGSC-NH2 [GSCG1-RL], the “transfection, comparison of generations G1, G2, G3” value with HeLa cells and in the data set with Neuro2A cells was “do not transfect” each time.

With (RL)4(KRL)2KGSC-NH2 [GSCG1,2-RL], the “transfection efficiency in comparison to GSCG1,2-KL” value is given as “higher transfection efficiency” with HeLa cells (N/P ratio of 10:1 or 20:1, FIG. 16) and “higher transfection efficiency” in the data set on Neuro2A cells (N/P ratio of 20:1, FIG. 16).
